Reference: patent US9931335B2, “Desethylhydroxychloroquine for the treatment of diseases associated with inflammation” (The Board of Trustees of the Leland Stanford Junior …, priority 2013, dated 2018)
Entries after “also recorded” stand apart in the source; their conditions may differ. Where a name gives a salt, the structure may show the parent alone.

Assays:
[1] = tested on: diet-induced obesity in C57BL/6 mice; test: Mouse diet-induced obesity: type II diabetes, hyperlipidemia and metabolic syndrome; format: in vivo; settings: 10 mg/kg/day, 6 weeks, vs vehicle; for blood glucose: two-tailed T test
Method: To evaluate treatment with DHCQ and HCQ on a mouse model of diet-induced type II diabetes, hyperlipidemia and metabolic syndrome, C57BL/6 mice (8 per group) were fed a high-fat “western-style” diet (60% caloric content from fat; Taconic). In an analogous fashion to that in Example 6, two weeks following initiation of the high-fat diet groups of mice were initiated on treatment with vehicle control, HCQ (10 mg/kg/day) or the HCQ metabolites DHCQ (10 mg/kg/day), DCQ (10 mg/kg/day), or BDCQ (10 mg/kg/day). After 6 weeks of treatment, blood was collected for analysis of glucose, triglyceride, and cholesterol levels.

[2] = tested on: collagen-induced arthritis (CIA) in DBA/1 mice; test: Collagen-induced arthritis (CIA) mouse model for RA, treatment from first immunization; format: in vivo; settings: 50 mg/kg/day oral gavage, 100 mg/kg/day loading day 14-21; vs vehicle, Mann Whitney U test P<0.05
ARPE-19 cells = tested on: ARPE-19 cells
Method: The major serious risk to long term administration of hydroxychloroquine is retinal accumulation and subsequent ocular toxicity (Terahi et al, 2008. Semin Opthal. (3):201-208. PMID). The ocular deposition of HCQ, DHCQ, and BDCQ was evaluated by direct retinal cellular toxicity by incubating equivalent concentrations of these molecules with the retinal pigmented epithelial cell line ARPE-19. ARPE-19 is a human retinal pigment epithelial cell line with differentiated properties (Dunn et al., Exp Eye Res. 1996 62(2):155-69). ARPE-19 cells were grown to 90% confluence, and then exposed to 10 µg/ml of HCQ, DHCQ, BDCQ, or vehicle control for 24 hours, following which microscopic analysis and photomicroscopy was performed at 40× power.
As described above, ARPE-19 cells were grown to 90% confluence then exposed to 10 μg/ml HCQ, DHCQ, BDCQ, or vehicle control for 24 hours followed by quantitation of cell death by lactate dehydrogenase (LDH) release assay (Abcam).

retinal toxicity = settings: cited from earlier work
[3] = tested on: DMM-induced OA in C57BL6 (B6) mice; test: Destabilization of the medial meniscus (DMM) mouse model of osteoarthritis; format: in vivo; settings: aminoquinolines 100 mg/kg/day, atorvastatin 40 mg/kg/day, oral gavage from 1 week after DMM, 3 months; vs vehicle, two-tailed T test
Method: One week following surgical induction, treatment was initiated with vehicle control, hydroxychloroquine (HCQ), or desethylhydroxychloroquine (DHCQ) dosed at 100 mg/kg/day by oral gavage (once per day). After 3 months, mice were sacrificed, joints harvested, joint sections cut, and tissue sections stained with safranin-O. An examiner blinded to treatment used microscopy to score the severity of OA. The “Cartilage Degeneration Score” (also known as the “OA score”, “Severity Score” and “Histology Score”) was determined by a blinded examiner, and the two-tailed T test used to determine if there were statistical differences in the Cartilage Degeneration Scores between groups.
The histologic sections generated at the termination of the mouse OA experiment presented above and in FIG. 5 were subject to blinded scoring for the “Osteophyte Score” (measure of the amount of osteophyte or ectopic bone formation) and “Synovitis Score” (measure of the amount of synovial and joint inflammation). The scores between groups were compared by two-tailed T test.
Experiments were performed under protocols approved by the Stanford University Committee of Animal Research and in accordance with NIH guidelines. Murine OA was generated by surgically by destabilization of the DMM (Glasson, S., S., et al., Osteoarthritis Cartilage, 15: 1061-1069 (2007)).
Mice were euthanized 3 months after surgery. Their stifle joints were decalcified in EDTA solution, fixed in 4% paraformaldehyde, and embedded in paraffin. Serial 4 micron sections were cut and stained with toluidine blue. Scoring of arthritis in these histology sections was done according to a modified version of previously described composite scoring systems (Kamekura, S., et al. Osteoarthritis Cartilage 13: 632-641 (2005); Bendele, A. M., J Musculoskelet Neuronal Interact., 1: 363-376 (2001)). The “OA Score” was calculated as follows: cartilage degeneration (0-4) was multiplied by the width (1=1/3, 2=2/3, and 3=3/3 of surface area) of each third of the femoral-medial and tibial-medial condyles, and the scores for the 6 regions were summed. To evaluate osteophyte (ectopic bone) formation, we scored toluidine-blue-stained sections according to a previously described scoring system (Kamekura, S., et al. Osteoarthritis development in novel experimental mouse models induced by knee joint instability. Osteoarthritis Cartilage 13, 632-641 (2005)): 0, none; 1, formation of cartilage-like tissues; 2, increase of cartilaginous matrix; 3, endochondral ossification. To evaluate synovitis, we scored H&E-stained sections according to a previously described scoring system (Blom, A. B., et al. Synovial lining macrophages mediate osteophyte formation during experimental osteoarthritis. Osteoarthritis Cartilage 12, 627-635 (2004)): 0, no changes compared to normal joints; 1, thickening of the synovial lining and some influx of inflammatory cells; 2, thickening of the synovial lining and intermediate influx of inflammatory cells; and 3, profound thickening of the synovial lining (more than four cell layers) and maximal observed influx of inflammatory cells. Scores for osteophyte formation and synovitis were recorded for the femoral-medial and the tibial-medial condyles on the operated side of the joint, and the scores for the two regions were summed and statistical comparisons performed using a two-tailed T test.
Treatment was started 1 week after surgical induction of destabilization of the medial meniscus (DMM), a time point at which mice were at increased risk for the development of OA.

SMILES | total cholesterol [1] | triglycerides [1] | blood glucose [1] | arthritis score (development of disease and disease activity) [2] | also measured
CC(CCCN)Nc1ccnc2cc(Cl)ccc12 (centres unmarked) [BDCQ, bisdesethylchloroquine] | did not result in statistical reductions | did not result in statistical reductions | did not result in statistical reductions in blood glucose | not associated with statistical protection or reduction in disease severity | ARPE-19 cellular toxicity by microscopy (ARPE-19 cells): increased cytotoxicity and death
CCNCCCC(C)Nc1ccnc2cc(Cl)ccc12 (centres unmarked) [DCQ, desethylchloroquine] | did not result in statistical reductions | did not result in statistical reductions | did not result in statistical reductions in blood glucose | not associated with statistical protection or reduction in disease severity | 
CCN(CCO)CCCC(C)Nc1ccnc2cc(Cl)ccc12 (centres unmarked) [HCQ sulfate, hydroxychloroquine sulfate] |  |  |  |  | incidence of retinal toxicity after 5 years (retinal toxicity; treated humans, conventional doses): 0.5-1%; incidence of retinal toxicity after 10-15 years (retinal toxicity; treated humans): approximately 2%; physician discontinuation for earlier eye problems over 5 years (retinal toxicity; treated patients): ~7%
CC(C)c1c(C(=O)Nc2ccccc2)c(-c2ccccc2)c(-c2ccc(F)cc2)n1CC[C@@H](O)C[C@@H](O)CC(=O)O [atorvastatin, reference compound] |  |  |  |  | Cartilage Degeneration Score (OA score) [3]: only resulted in trends towards improvement; also recorded: did not result in a statistically significant reduction in the severity of OA
CCN(CC)CCCC(C)Nc1ccnc2cc(Cl)ccc12 (centres unmarked) [chloroquine] |  |  |  |  | rates of retinal toxicity relative to HCQ (retinal toxicity; in vivo): Considerably higher rates of toxicity
